Entries after “also recorded” stand apart in the source; their conditions may differ. Like-named read-outs stand apart in the source and are kept apart here.

In series [1] the test system is advanced refractory soft tissue. Conditions: high dose, cumulative dose of 12 000 mg/m2; cited from earlier work.
In series [2] the test system is IFNγ, IL-17A and IL-6 secretion. Kind of series: TCR-driven cytokine release by splenocytes of treated MCA205 tumor-bearing mice. Type of series: in vivo, mouse. Here is the method: (§1) Female C57BL/6 mice of 7 to 8 weeks were randomly assigned to the different treatment groups. […] Both drugs were dissolved in a solution of NaCl 0.9%. […] The administrations were performed by a single i.p. injection with a volume of 20 mL/kg or 10 mL/kg when adding G-IFO groups. Seven days post treatment, the mice were sacrificed, spleens and tumors were collected. After lysis of red blood cells with ammonium chloride splenic viable cells were quantified with Trypan Blue with Vi-CELL XR (Beckman Coulter).
(§2) From spleen cell suspension, a total of 2·10^5 cells per well were incubated in 96 well Nunc MaxiSorp® plates (eBioscience) precoated with anti-CD3ε mAbs (clone 145-2C11, 10 μg/mL); eBioscience) and/or anti-CD28 mAbs (clone 37.57, 2 μg/mL; BD Pharmingen). The supernatants were assayed after 48 hours of incubation at 37° C. under 5% CO2 using Cytokine concentrations were quantified in the supernatant using a Bio-Plex™ Mouse Cytokine Standard 23-Plex, Group I Assay (bio rad, M60009RDPD). The panel was comprised of the following cytokines and chemokines: eotaxin, Granulocyte-Colony Stimulating Factor (G-CSF), Granulocyte-Macrophage-Colony Stimulating Factor (GM-CSF), interferon gamma (IFNγ), interleukin (IL)-1α (IL-1α), IL-1β, IL-2, IL-3, IL-4, IL-5, IL-6, IL-9, IL-10, IL-12p40, IL-12p70, IL-13, IL-17A, Keratinocyte Chemoattractant (KC), Macrophage Chemotactic Protein-1 (MCP-1), Macrophage Inflammatory Protein (MIP)-1alpha (MIP-1α), MIP-1β, Regulated on Activation Normal T cell Expressed and Secreted (RANTES) and Tumor Necrosis Factor-alpha (TNF-α). Results were analyzed using Bio-Plex Manager Software V 6.1 (Bio-Rad Laboratories, Hercules, CA, USA). […] These three cytokines were then quantified using mouse IL-17A ELISA Ready-SET-Go® (eBiosciences), Mouse IFNy ELISA Set (BD Biosciences) and Mouse IL-6 ELISA Set (BD Biosciences).

The test system of series [3] is B cells. The format is in vivo, mouse. Conditions: for B cell depletion in the spleen: FIG. 4, IFO 150 mg/kg, CPA 100 mg/kg, G-IFO eq. 100 or 150 mg/kg, single i.p., 7 days. How it is done: (§3) Female C57BL/6 mice of 7 to 8 weeks were randomly assigned to the different treatment groups. […] Both drugs were dissolved in a solution of NaCl 0.9%. […] Seven days post treatment, the mice were sacrificed, spleens and tumors were collected. After lysis of red blood cells with ammonium chloride splenic viable cells were quantified with Trypan Blue with Vi-CELL XR (Beckman Coulter).
(§4) Briefly, tumor dissociation was done with GentleMACS™ Dissociator after adding ADNase (260913, Millipore) and […] (5401127001, Sigma) to weighed and cut tumors. Tumor cells were incubated for 40 min at 37° C. under stirring and then quantified with Trypan Blue with Vi-CELL XR (Beckman Coulter). Before staining, Fcγ-receptors were blocked for 15 min at 4° C. using anti-CD16/32 functional grade purified antibodies (eBioscience, Paris, France). Cells were incubated for 30 min at 4° C. with antibodies for cell surface staining. For FoxP3 staining, cells were fixed and permeabilized after cell surface staining according to the FoxP3 kit protocol (eBioscience, Paris, France). Samples were acquired on 10-colors Gallios cytometer (Beckman Coulter, Villepinte, France). Analyses were performed using Kaluza software 1.3 (Beckman Coulter). Two different panels were used to identify immune cells. First leucocytes were identified by the use of FITC-conjugated anti-mouse CD45. T and B lymphocytes were identified using APC-Cy7-conjugated anti-mouse CD3 and BV421-conjugated anti-mouse CD19 respectively. CD4^+ and CD8^+ T cells were separated using PE-Cy7-conjugated anti-mouse CD4 and APC-R700-conjugated anti-mouse CD8a staining among CD3 positive cells, respectively. Treg cells were stained using APC-conjugated anti-mouse FoxP3 staining among CD3^+CD4^+ T cells (Table 1).

Series [4] deals with osteosarcoma. Conditions: high dose, cumulative dose of 14 000 mg/m^2, cited from earlier work.
Series [5] relates to T cells. The format is in vivo, mouse. Conditions: for T cell counts: tumor-bearing mice. Here is the method: as §1, §4
In series [6] the test system is MCA205 fibrosarcoma tumor. In words: Antitumor activity of IFO in MCA205-bearing mice depleted in CD4+ and/or CD8+ T cells. Type of series: in vivo, mouse. The source says:
(§5) 8·10^5 tumor cells were inoculated subcutaneously (s.c.) in the right flank of C57Bl/6 mice on DO.

For series [7], the system named is IFNγ, IL-17A and IL-6 secretion. Kind of series: TCR-driven cytokine release by splenocytes of treated naive mice. The format is in vivo, mouse. Conditions: CPA 100 mg/kg, IFO 100, 150 and 200 mg/kg, CD3ε+CD28 stimulation. How it is done:
as §3, §2

The subject of series [8] is MCA205 fibrosarcoma tumor. The format is in vivo, mouse. Conditions: single i.p. Here is the method:
7-8 weeks-old female C57BL/6 mice (mean body weight, 20 g) were purchased from Harlan Laboratories (Gannat, France). Animals were used in pathogen-free conditions. MCA205 fibrosarcoma tumor cell line (syngenic from C57Bl/6 mice) was kindly provided by Dr Yamazaki Takahiro (INSERM U1015, Gustave Roussy, Villejuif, France). They were harvested at 37° C. under 5% CO2 in Gibco™ RPMI 1640 medium (Paisley, UK) supplemented with 10% Fetal Bovine Serum (Paisley, UK) and 2 mM L-glutamine (Invitrogen, USA). All animal experiments were carried out in compliance with French and European laws and regulations and by the CEEA26 Ethic committee and the ministry of national education, higher education and research and carried out under conditions established by the European Community (Directive 2010/63/2015-038).
as §5
Regarding study for combination between chemotherapy (G-IFO) and anti-PD1 mAbs, mice received G-IFO or vehicle on D9 then 200 μg/mouse i.p. injections of anti-PD1 mAbs (clone RMP1-14) or its isotype control Rat IgG2a (clone 2A3) on D12, D15 and D19. Tumor volume was followed-up three times a week by measuring the length and width using a caliper. In order to normalize tumor measurements for each day VTDx to VTDi (VTDx/VTDi) ratio was calculated; VTDi corresponds to the tumor volume the day of treatment initiation and VTDx corresponds to the tumor volume on each measurement day for each mouse.

Series [9] concerns several cancerous cells. Conditions: cited from earlier work.
The conditions of series [10]: mice, intravenous route; cited from earlier work.
The test system of series [11] is rhabdomyosarcoma. Conditions: murine model of rhabdomyosarcoma; cited from earlier work.
The test system of series [12] is large panel of tumor cells. Conditions: in vitro; cited from earlier work.
The mark [13] stands for this setting: IFO 100 and 150 mg/kg, CD3ε and CD28 co-stimulation.

Take `O=P1(NCCCl)OCCCN1CCCl` (stereo not drawn) [IFO, ifosfamide]: in series [1], the efficacy result is listed as “effective” and the toxicities result was “major toxicities”. For the same compound, in series [2] (IFO 150 mg/kg), the “TCR-driven IL-6 compared to CPA 100 mg/kg” value was “more” and the “TCR-driven IL-17 compared to CPA 100 mg/kg” value is given as “more”. In [2] (setting [13]), the “TCR-driven IFNγ” value is listed as “significant secretion”, the “TCR-driven IL-6” value is “significant secretion” and the “TCR-driven IL-17A” value was “significant secretion”. Moreover, in [2] (IFO 200 and 300 mg/kg), the “TCR-driven IFNγ” value is “failed to induce”, the “TCR-driven IL-6” value is reported as “remained highly secreted” and the “TCR-driven IL-17A” value is listed as “failed to induce”. Also, in series [3], the “B cell depletion in the spleen” value is reported as “Dose-dependent B cell depletion”. The improved disease-free survival in [4] (children previously treated with conventional chemotherapy) is 30 % of patients. The “severe nephrotoxicity, share of patients” value in series [4] is given as “a quarter”. In series [5] (IFO 100 and 150 mg/kg), the T cell counts result was “no T cell counts decrease”. Further, in series [5] (IFO higher doses (200 and 300 mg/kg)), the T cell counts entry is “T cell counts diminution”. The tumor growth entry in series [6] (IFO 150 mg/kg single i.p., non-depleted mice) is “Significant reduction of the tumor growth”. In addition, the antitumor effect result in [6] (IFO 150 mg/kg, CD4+ T cells and CD8+ T cells depleted mice) was “decrease of the antitumor effect”. Moreover, in series [6] (IFO 150 mg/kg, mice depleted with both CD4+ and CD8+ T cells), the antitumor efficacy entry is on record as “completely abolished”. For the same compound, in [7], the “TCR-driven IFNγ” value is listed as “significant increase”, the “TCR-driven IL-6” value is “significant increase” and the “TCR-driven IL-17A” value was “significant increase”. Besides, in [8] (IFO 100, 150, 200 and 300 mg/kg), the tumor growth entry is given as “delay of tumor growth”.

In the case of `CC(C)=CCC/C(C)=C/CC/C(C)=C/CC/C=C(\C)CC/C=C(\C)CCC(=O)NCCSC1CCOP(=O)(NCCCl)N1CCCl` (stereo not drawn) [SQ-thio-IFO], in series [9], the cytotoxicity result is “display cytotoxicity”.

Regarding `O=P1(N(CCCl)CCCl)NCCCO1` (stereo not drawn) [CPA, Cyclophosphamide], the “B cell depletion in the spleen” value in [3] is “Dose-dependent B cell depletion”. In [7], the “TCR-driven IFNγ” value is given as “significantly increased”, the “TCR-driven IL-6” value is on record as “significantly increased” and the “TCR-driven IL-17A” value is “significantly increased”. Also, in series [8] (CPA 100 mg/kg), the tumor growth result is “Significant reduction of the tumor growth”.

For the compound `CC(C)=CCC/C(C)=C/COC1CCOP(=O)(NCCCl)N1CCCl` (stereo not drawn) [G-IFO, geranyloxy-Ifosfamide], in series [10], the “conversion into 4-hydroxy-ifosfamide metabolite” value is “rapidly converted”. In series [2] (G-IFO eq. 100 mg/kg), the “IFNγ secretion (Th1 polarization)” value was “favored IFNγ secretion; also recorded: increase” and the IL-6 secretion result is “increase”. Besides, in [2] (G-IFO eq. 150 mg/kg), the IFNγ secretion entry is given as “poor secretion of IFNγ” and the IL-6 secretion result is reported as “high levels of IL-6”. Moreover, in series [2] (escalating doses of G-IFO), the IL-17 secretion result is “No significant IL-17 secretion”. The “B cell depletion in the spleen” value in [3] was “Dose-dependent B cell depletion”. In addition, in series [3] (G-IFO low dose eq. 100 mg/kg, i.p.), the B cells population entry is listed as “very affected”. Further, the T cell depletion entry in series [5] (G-IFO eq. 150 mg/kg) is on record as “induced T cell depletion”. The tumor growth result in series [11] is recorded as “prevent tumor growth”. Besides, in [8] (G-IFO eq. 100 mg/kg), the tumor growth result is “able to delay tumor growth; also recorded: showed an antitumoral activity; also recorded: delayed tumor-growth”. In series [8] (G-IFO eq. 100 mg/kg, FIG. 2D), the “tumor growth delay compared to CPA 100 mg/kg” value was “lower tumor growth delay”. Also, the cytotoxicity entry in series [12] was “cytotoxic”.

As to `CC(C)=CCC/C(C)=C/CC/C(C)=C/CC/C=C(\C)CC/C=C(\C)CCCOC1CCOP(=O)(NCCCl)N1CCCl` (stereo not drawn) [SQ-IFO], the cytotoxicity result in [9] is recorded as “display cytotoxicity”.

(Values after US20230390312A1, “NOVEL THERAPEUTIC COMBINATIONS COMPRISING DERIVATIVES OF OXAZAPHOSPHORINES FOR THE TREATMENT OF CANCER” (INSTITUT GUSTAVE ROUSSY, priority 2019, published 2023).)
